Converted amounts (≈) assume the structure as drawn. “Also recorded” adds a separate entry of the source. Like-named read-outs stand apart in the source and are kept apart here.
Key:
[1] = test system: Bp 1026b; type: in vivo, BALB/c mice
[2] = test system: Bt; type: cell-based, Burkholderia thailandensis
[3] = test system: T6SS-5 secretion activity (Hcp), Bp 1026b; type: cell-based, Burkholderia pseudomallei
[4] = test system: Bt E264; type: cell-based, Burkholderia thailandensis
[5] = test system: Bm 23344; type: cell-based, Burkholderia mallei
[6] = test system: Bt; experiment: microbe, parasite or virus in culture; type: cell-based, Burkholderia thailandensis; conditions: for MIC: Burkholderia thailandensis, read-out: in vitro MIC
[7] = test system: Bp MSHR305; type: cell-based, Burkholderia pseudomallei
[8] = test system: HEK293 cells; experiment: CellTiter-Glo cell viability (cellular toxicity) assay; conditions: for TD = toxic dose (dose at which HEK293 cell growth is significantly affected): Celltitre-Glo, HEK293 cells; for effect on HEK293 cell viability: concentrations 10-fold higher than the IC100, ATP-depletion assay
[9] = reference 37; cited from earlier work
[10] = test system: T6SS-5 secretion activity (Hcp), Bt E264; type: cell-based, Burkholderia thailandensis
[11] = test system: Bp 1026b; type: cell-based, Burkholderia pseudomallei
[12] = test system: Bt; type: cell-based, Burkholderia thailandensis; remark: listed apart in the source
[13] = test system: virulence loci (virG, bsaM, bimA, vgrG) of Bt E264; type: cell-based, Burkholderia thailandensis
[14] = target: T1, E. coli DNA gyrase (Escherichia coli, UniProt P0AES4+P0AES6); experiment: E. coli DNA gyrase negative supercoiling assay; type: biochemical; conditions: 100 uM or 500 uM, agarose gel
T1 construct: purchased New England Biolabs

[15] = test system: S. aureus ATCC 29213; experiment: MIC by broth microdilution, S. aureus ATCC 29213; type: cell-based; conditions: Staphylococcus aureus, ATCC29213
[16] = test system: P. aeruginosa resistant isolate 2; experiment: MIC by broth microdilution, P. aeruginosa resistant isolate 2; type: cell-based; conditions: Pseudomonas aeruginosa
[17] = test system: S. aureus resistant isolate 2; experiment: MIC by broth microdilution, S. aureus resistant isolate 2; type: cell-based; conditions: Staphylococcus aureus
[18] = test system: E. coli 25922; experiment: MIC by broth microdilution, E. coli 25922; type: cell-based, Escherichia coli; conditions: for MIC: Escherichia coli, E. coli 25922, broth microdilution
[19] = test system: P. aueruginosa ATCC 27853; experiment: MIC by broth microdilution, P. aeruginosa ATCC 27853; type: cell-based, Pseudomonas aeruginosa; conditions: for MIC: Pseudomonas aeruginosa, ATCC27853
[20] = test system: Bp82.270 (BpeEF-OprC+); experiment: microbe, parasite or virus in culture; type: cell-based; conditions: Burkholderia pseudomallei
[21] = test system: Bp82 (BpeEF-OprC-); experiment: microbe, parasite or virus in culture; type: cell-based; conditions: Burkholderia pseudomallei
[22] = test system: E. coli resistant isolate 1; experiment: MIC by broth microdilution, E. coli resistant isolate 1; type: cell-based; conditions: Escherichia coli; E. coli resistant isolate 1 (Cip-resistant clinical isolate)
[23] = test system: E. coli resistant isolate 2; experiment: MIC by broth microdilution, E. coli resistant isolate 2; type: cell-based; conditions: Escherichia coli; E. coli resistant isolate 2 (Cip-resistant clinical isolate)
[24] = test system: Bp82.284 (BpeEF-OprC+); experiment: microbe, parasite or virus in culture; type: cell-based; conditions: Burkholderia pseudomallei
[25] = test system: P. aeruginosa resistant isolate 1; experiment: MIC by broth microdilution, P. aeruginosa resistant isolate 1; type: cell-based; conditions: Pseudomonas aeruginosa
[26] = test system: Bp82.285 (BpeEF-OprC+); experiment: microbe, parasite or virus in culture; type: cell-based; conditions: Burkholderia pseudomallei
[27] = test system: S. aureus resistant isolate 1; experiment: MIC by broth microdilution, S. aureus resistant isolate 1; type: cell-based; conditions: Staphylococcus aureus

T1 sequence (P0AES4 whole entry, one chain of several): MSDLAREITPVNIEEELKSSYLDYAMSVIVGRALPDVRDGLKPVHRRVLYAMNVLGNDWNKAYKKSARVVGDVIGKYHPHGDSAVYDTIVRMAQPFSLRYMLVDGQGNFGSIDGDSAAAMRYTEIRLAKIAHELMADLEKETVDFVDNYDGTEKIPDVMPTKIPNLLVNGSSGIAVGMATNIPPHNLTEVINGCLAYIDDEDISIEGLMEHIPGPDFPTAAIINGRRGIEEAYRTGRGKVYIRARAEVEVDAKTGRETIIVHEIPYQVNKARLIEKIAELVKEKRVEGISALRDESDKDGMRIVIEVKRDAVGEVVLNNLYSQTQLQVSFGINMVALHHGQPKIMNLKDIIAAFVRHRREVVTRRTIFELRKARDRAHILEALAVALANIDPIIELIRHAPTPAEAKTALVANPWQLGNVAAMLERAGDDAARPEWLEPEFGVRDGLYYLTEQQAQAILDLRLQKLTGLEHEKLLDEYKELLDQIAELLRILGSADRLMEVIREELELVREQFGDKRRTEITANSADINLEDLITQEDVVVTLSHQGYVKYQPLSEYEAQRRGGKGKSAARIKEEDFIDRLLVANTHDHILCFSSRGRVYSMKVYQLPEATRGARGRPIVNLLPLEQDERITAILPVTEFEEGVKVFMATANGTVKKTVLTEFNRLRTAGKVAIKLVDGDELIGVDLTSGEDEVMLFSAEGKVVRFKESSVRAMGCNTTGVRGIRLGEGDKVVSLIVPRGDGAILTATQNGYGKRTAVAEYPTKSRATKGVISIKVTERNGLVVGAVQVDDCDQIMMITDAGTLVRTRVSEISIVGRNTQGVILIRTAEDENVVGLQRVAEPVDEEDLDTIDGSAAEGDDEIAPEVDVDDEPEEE

Nc1nc(=O)[nH]cc1F [5-FC, flucytosine]
bacterial loads in liver and spleen compared to lung of surviving mice ([1]; mouse, in vivo): low or undetectable bacterial loads
bacterial loads in lungs, livers, and spleens ([1]; mouse, in vivo): decreased, although to a lesser extent
histopathology: inflammation in pulmonary, hepatic, and splenic tissue ([1]; mouse, in vivo): significantly reduced inflammation
mice surviving the entire study duration (10 days) ([1]; mouse, in vivo): 12%
mice surviving to five days post-infection ([1]; mouse, in vivo): 36.7%
overall efficacy compared to ceftazidime ([1]; mouse, in vivo): superiority to ceftazidime
actin-mediated intracellular motility (bacteria with actin tails) [2]: does not inhibit actin-mediated intracellular motility
expression of Hcp (pellet) [3]: does not affect expression of Hcp
secretion of Hcp (supernatant) [3]: inhibits secretion of Hcp
inhibition of plaque formation by Bt E264 (screen and validation) [4]: inhibitors; also recorded: activity against Bp and Bt
intercellular spread by time of addition [4]: robustly inhibits intercellular spread irrespective of time of addition
plaque formation by Bt [4]: completely inhibits plaque formation; also recorded: completely abolished plaque formation
plaque formation by Bt at increasing concentrations [4]: inhibits plaque formation
inhibition of plaque formation by Bm 23344 (validation) [5]: ineffective
in vitro growth of Bt [6]: does not significantly inhibit in vitro growth
plaque formation by Bp MSHR305 [7]: effective at ablating plaque formation
TD = toxic dose (dose at which HEK293 cell growth is significantly affected) [8]: >50 µM
effect on HEK293 cell viability [8]: no effect on cell viability
bioavailability [9]: good bioavailability
expression of Hcp (pellet) [10]: does not affect expression of Hcp
secretion of Hcp (supernatant) [10]: inhibits secretion of Hcp
ED = effective dose (IC100) against Bp [11]: 3.1 µM
inhibition of plaque formation by Bp 1026b (validation) [11]: activity against Bp and Bt
plaque formation by Bp at increasing concentrations [11]: inhibits plaque formation
decrease in peak intracellular bacterial numbers [12]: 3 fold
intracellular replication of Bt [12]: delays and decreases, but does not eliminate
intracellular replication of a fusion defective mutant (ΔvgrG) [12]: does not inhibit the intracellular replication
reduction in the expression of virG, bsaM, bimA, and vgrG [13]: ≤ 4 fold

O=c1[nH]cc(F)c(=O)[nH]1 [5-FU, 5-fluorouracil]
plaque formation by Bt ([4]; 25 μM): completely abolished plaque formation

CCn1cc(C(=O)O)c(=O)c2cc(F)c(N3CCOCC3)cc21 [BFX, 1-Ethyl-6-fluoro-7-(4-morpholinyl)-4-oxo-1,4-dihydro-3-quinolinecarboxylic acid]
negative supercoiling activity of E. coli DNA gyrase [14]: inhibits the negative supercoiling activity
bacterial loads in liver and spleen compared to lung of surviving mice ([1]; 10 days): low or undetectable bacterial loads
bacterial loads in lungs, livers, and spleens ([1]; mouse, in vivo): decreased relative to placebo and ceftazidime-treated controls
histopathology: inflammation in pulmonary, hepatic, and splenic tissue ([1]; mouse, in vivo): nearly undetectable inflammation
overall efficacy compared to ceftazidime ([1]; mouse, in vivo): superiority to ceftazidime
mice surviving the entire study duration (10 days) ([1]; n=8): 63%
mice surviving to five days post-infection ([1]; n=8): 100%
MIC [15]: > 7 µg/mL
MIC [16]: > 7 µg/mL
MIC [17]: > 7 µg/mL
growth of E. coli ATCC 25922 (in words) [18]: inhibitory for the growth
MIC [18]: 4 µg/mL (≈ 12.5 µM)
fold lower concentration than Cip at which plaque formation by Bt is prevented [4]: 8 fold
inhibition of plaque formation / intercellular spread by Bt E264 [4]: near-complete inhibition
inhibition of plaque formation by Bt E264 (screen and validation) [4]: consistently inhibit plaque formation
inhibition of plaque formation by Bm 23344 (validation) [5]: consistently inhibit plaque formation
dose needed to inhibit growth in laboratory medium [6]: 5 µM
in vitro growth of Bt [6]: does not inhibit in vitro growth
MIC [6]: 2.6 µg/mL (≈ 8.12 µM)
plaque formation by Bp MSHR305 ([7]; 5 μM): effective at ablating plaque formation
TD = toxic dose (dose at which HEK293 cell growth is significantly affected) [8]: >50 µM
effect on HEK293 cell viability [8]: no effect on cell viability
growth of Pseudomonas aeruginosa ATCC 27853 (in words) [19]: inhibitory for the growth
MIC [19]: 4 µg/mL (≈ 12.5 µM)
MIC [20]: 32 µg/mL (≈ 99.9 µM)
MIC [21]: 2 µg/mL (≈ 6.24 µM)
ED = effective dose (IC100) against Bp [11]: 0.1 µM
inhibition of plaque formation / intercellular spread by Bp 1026b [11]: near-complete inhibition
inhibition of plaque formation by Bp 1026b (validation) [11]: consistently inhibit plaque formation
MIC [22]: > 7 µg/mL
MIC [23]: > 7 µg/mL
intracellular replication of Bt [12]: inhibits intracellular replication
MIC [24]: 32 µg/mL (≈ 99.9 µM)
MIC [25]: > 7 µg/mL
MIC [26]: 32 µg/mL (≈ 99.9 µM)
MIC [27]: > 7 µg/mL

O=C(O)c1cn(C2CC2)c2cc(N3CCNCC3)c(F)cc2c1=O [Cip, ciprofloxacin]
negative supercoiling activity of E. coli DNA gyrase [14]: inhibits the negative supercoiling activity
MIC [15]: > 7 µg/mL
MIC [16]: > 7 µg/mL
MIC [17]: > 7 µg/mL
MIC [18]: 2 µg/mL (≈ 6.04 µM)
MIC [6]: 1.3 µg/mL (≈ 3.92 µM)
MIC [19]: 4 µg/mL (≈ 12.1 µM)
MIC [20]: 16 µg/mL (≈ 48.3 µM)
MIC [21]: 1 µg/mL (≈ 3.02 µM)
MIC [24]: 16 µg/mL (≈ 48.3 µM)
MIC [25]: > 7 µg/mL
MIC [26]: 16 to 32 µg/mL (≈ 48.3 to 96.6 µM)
MIC [27]: > 7 µg/mL

O=c1[nH]c(=O)n([C@@H]2O[C@H](CO)[C@@H](O)[C@H]2O)cc1F [F-UR, Fluorouridine]
plaque formation by Bt [4]: minimally inhibitory; also recorded: fully inhibitory

O=c1[nH]c(=O)n([C@H]2C[C@H](O)[C@@H](CO)O2)cc1F [F-UdR, fluorodeoxyuridine]
plaque formation by Bt [4]: lack of inhibitory activity

C[C@H]1COc2c(N3CCN(C)CC3)c(F)cc3c(=O)c(C(=O)O)cn1c23 [Levo, levofloxacin]
MIC [15]: > 7 µg/mL
MIC [16]: > 7 µg/mL
MIC [17]: > 7 µg/mL
MIC [18]: 4 µg/mL (≈ 11.1 µM)
MIC [19]: 5 µg/mL (≈ 13.8 µM)
MIC [22]: > 7 µg/mL
MIC [23]: > 7 µg/mL
MIC [25]: > 7 µg/mL
MIC [27]: > 7 µg/mL

C[C@@H]1CC[C@H]2[C@@H](C)C(=O)O[C@@H]3O[C@@]4(C)CC[C@@H]1[C@]32OO4 [artemisinin]
inhibition of plaque formation by Bm 23344 (validation) [5]: specific for Bm only

CC(C)(O/N=C(\C(=O)N[C@@H]1C(=O)N2C(C(=O)[O-])=C(C[n+]3ccccc3)CS[C@H]12)c1csc(N)n1)C(=O)O [ceftazidime]
time by which all animals succumbed to infection ([1]; mouse, in vivo): by five days

CC[C@@]1([C@@H]2O[C@@H]([C@H]3O[C@@](O)(CO)[C@H](C)C[C@@H]3C)C[C@@H]2C)CC[C@H]([C@]2(C)CC[C@]3(C[C@H](O)[C@@H](C)[C@@H]([C@@H](C)[C@@H](OC)[C@H](C)C(=O)O)O3)O2)O1 [monensin]
inhibition of plaque formation by Bm 23344 (validation) [5]: specific for Bm only

COc1cc(Cc2cnc(N)nc2N)cc(OC)c1OC [trimethoprim]
inhibition of plaque formation by Bt E264 (screen and validation) [4]: inhibitors

Reference: patent publication US12357617B2, “Discovery of novel anti-infectives for gram negative pathogens” (priority 2018, dated 2025)
